In PMC11768771, “Identification of a New Pentafluorosulfanyl-Substituted Chalcone with Activity Against Hepatoma and Human Parasites” (Pharmaceuticals, 2025):
“Also recorded” adds a separate entry of the source. Where two headings read alike, the source gives them in different places.

Experiments:
L. major promastigotes = test: Leishmania major testing assay, promastigotes; assay type: cell-based; conditions: for SI (Promastigotes) selectivity index (macrophages/L. major): ratio macrophages IC50 / promastigotes IC50
Procedure: (§3) Promastigotes (obtained from a patient in 2016) and amastigotes of L. major were applied for drug testing according to previously published methods [63, 90]. IC50 values were calculated from three independent experiments.

[1] = tested on: T. gondii tachyzoites (RH strain); test: Toxoplasma gondii testing assay; assay type: cell-based; conditions: for IC50: Toxoplasma gondii, T. gondii parasites cultivated in Vero cells; for SI selectivity index (Vero/T. gondii): ratio Vero IC50 / T. gondii IC50
Procedure: Cells of the Vero cell line (ATCC® CCL81™, Manassas, VA, USA) were used to cultivate T. gondii tachyzoites (RH strain, a gift from Dr. Saeed El-Ashram, State Key Laboratory for Agrobiotechnology, China Agricultural University, Beijing, China). Effects of test compounds on T. gondii growth were investigated as published previously and expressed as IC50 values, which were calculated from three independent experiments [63, 89].

HepG2 [2] = test: Antiproliferative activity, crystal violet assay; assay type: cell-based; conditions: Homo sapiens, HepG2, 48 h, mean ± SD
Procedure: (§4) Human hepatocellular carcinoma cell lines HepG2 (ATCC number: HB-8065) and HuH-7 (JCRB number: JCRB0403) were cultured at Roswell Park Memorial Institute (RPMI) 1640 Medium (Gibco, Thermo Fisher Scientific, Waltham, MA, USA) supplemented with 10% fetal bovine serum, 2 mM L-glutamine (Corning, Glendale, CA, USA), 100 U/mL penicillin and 100 µg/mL streptomycin (Bio&SELL, Feucht, Germany) at 37 °C, 5% CO2 in a humidified atmosphere in an incubator.
(§5) Treatment-induced antiproliferative effects measured as a decrease in cell number were assessed by crystal violet (N-hexamethylpararosaniline from Sigma-Aldrich, Darmstadt, Germany) staining as described before [71, 88]. In brief, HepG2 and HuH-7 cells were seeded in 96-well plates and allowed to adhere to the bottom of the wells and grow for 72 h in an incubator (37 °C, 5% CO2, humidified atmosphere). Afterwards, the cells were treated with rising concentrations of the chalcones, sorafenib and 17-AAG. After 24 h, 48 h and 72 h, respectively, the cells were fixed using 1% glutaraldehyde and stained for 30 min with 0.1% crystal violet. The excess unbound dye was removed by rinsing with water for 30 min. Cells were then lysed by incubation with 0.2% Triton X-100 (Sigma-Aldrich, Darmstadt, Germany) overnight dissolving the bound dye. The extinction of crystal violet was measured at 570 nm using ELISA readers (Dynex Technologies, Denkendorf, Germany; GloMax® Discover Microplate Reader Promega, Madison, WI, USA). IC50 values are given as means ± SD of a minimum of three independent experiments performed in triplicates and more.

L. major amastigotes = test: Leishmania major testing assay, amastigotes; assay type: cell-based; conditions: for IC50: Leishmania major; for SI (Amastigotes) selectivity index (macrophages/L. major): ratio macrophages IC50 / amastigotes IC50
Procedure: as §3

murine macrophages = test: Macrophage cytotoxicity (MTT assay); assay type: cell-based; conditions: Mus musculus
Procedure: (§6) Cytotoxicity to Vero cells or murine macrophages was evaluated using the MTT assay according to previously published articles and expressed as IC50 values which were determined from three independent experiments [63, 91].

HuH-7 [3] = test: Antiproliferative activity, crystal violet assay; assay type: cell-based; conditions: Homo sapiens, Huh-7, 48 h, mean ± SD
Procedure: as §4, §5

Vero monkey kidney cells = test: Vero cell cytotoxicity (MTT assay); assay type: cell-based; conditions: Primates
Procedure: as §6

HepG2 [4] = test: Colony formation assay; assay type: cell-based, Human; conditions: HepG2, 14 days of growth under treatment
Procedure: (§7) Long-term effects of drug treatment on proliferation and clonogenicity were assessed by colony formation assays. HCC cell lines were seeded at 1000 cells/well (HepG2) and 200 cells/well (HuH-7) in 6-well plates and allowed to adhere overnight. […] Untreated cells served as controls. After 14 d, the cells were washed with PBS, fixed with 4% formaldehyde for 1 h and stained with 0.5% crystal violet for 3 min. Excess crystal violet dye was removed by gently rinsing with water. Representative images were taken and stained colonies were counted. A colony was defined as a cell aggregate of 50 or more cells. n = 4 independent experiments were performed and significance was tested by one-way ANOVA assays.

HuH-7 [5] = test: Colony formation assay; assay type: cell-based, Human; conditions: HuH-7, 14 days of growth under treatment
Procedure: as §7

Hsp90 in HepG2 cells = test: Western blot analysis of Hsp90 expression; assay type: cell-based, Human; conditions: HepG2, 24 h treatment
Procedure: (§1) Changes in the level of protein expression were assessed through Western blotting. HepG2 and HuH-7 cells were seeded at a density of 1 × 10^6 cells/well in 100 mm petri dishes and incubated until the desired confluency. Drugs were added at given concentrations for 24 h. Untreated cells served as controls. After washing with PBS, the cells were frozen at −20 °C. Subsequently, radioimmunoprecipitation assay (RIPA) buffer mixed with one cOmplete™ Mini Protease Inhibitor tablet/10 mL (Roche Diagnostics GmbH, Mannheim, Germany) was added to lyse the cells. Following these steps, the protein levels were analyzed using the Pierce™ BCA Protein Assay Kit (Thermo Fisher Scientific, Waltham, USA) and protein levels were normalized to ensure equal protein loading of 20 µg/lane. Laemmli buffer and β-mercaptoethanol were added to the probes following denaturation at 96 °C for 10 min. Proteins were separated using SDS–PAGE and electro-transferred to polyvinylidene difluoride (PVDF) membranes. Membranes were blocked in 5% non-fat dry milk in Tris-buffered saline with 0.1% Tween-20 and incubated with primary antibody overnight at 4 °C. […] Blots of n = 3 independent experiments were generated. β-Actin expression served as a loading control and calculated values were normalized to its expression.

Hsp90 in HuH-7 cells = test: Western blot analysis of Hsp90 expression; assay type: cell-based, Human; conditions: HuH-7, 24 h treatment
Procedure: as §1

HuH-7 [6] = test: Lactate dehydrogenase (LDH) assay, unspecific cytotoxicity; assay type: cell-based, Human; conditions: HuH-7, 1, 5 and 10 µM, 6 h and 24 h, vs untreated controls
Procedure: (§2) To exclude unspecific compound-induced cytotoxicity as the predominant mode of action a lactate dehydrogenase (LDH) assay was performed using the Cytotoxicity Detection Kit^PLUS LDH (Roche Diagnostics GmbH, Mannheim, Germany, Cat. No. 4744934001) as described earlier. In short, HCC cells were seeded in 96-well plates at 8 × 10^3 cells/well (HepG2) and 10 × 10^3 cells/well (HuH-7). Following incubation overnight, the cells were treated with 246TMP-3SF5 and 17-AAG at final concentrations of 1 µM, 5 µM and 10 µM, respectively, for 6 h and 24 h. The formation of the red-brownish formazan dye, which is formed proportionally to the LDH enzyme activity in the sample, was measured at 490/600 nm using the GloMax® Discover Microplate Reader (Promega, Madison, WI, USA). Unspecific cytotoxicity was determined by measuring the percentage of LDH release into the supernatant of treated cells compared to untreated controls. Measurements were performed in triplicate in n = 3 independent experiments and mean percentage changes ± SEM as compared to controls are shown.

HepG2 [7] = test: as above; assay type: cell-based, Human; conditions: HepG2, 1, 5 and 10 µM, 6 h and 24 h, vs untreated controls
Procedure: as §2

Hsp70 in HuH-7 cells = test: Western blot analysis of Hsp70 expression; assay type: cell-based, Human; conditions: HuH-7, 24 h treatment
Procedure: as §1

Hsp70 in HepG2 cells = test: Western blot analysis of Hsp70 expression; assay type: cell-based, Human; conditions: HepG2, 24 h treatment
Procedure: as §1

[8] = tested on: T. gondii tachyzoites (RH strain); design: method as in PMID 34174635; conditions: positive control; cited from earlier work

Structure (SMILES) | IC50 (L. major promastigotes; Leishmania major) [nM] | IC50 (HepG2 [2]) [µM] | IC50 (L. major amastigotes) [µM] | IC50 (HuH-7 [3]) [µM] | IC50 (L. major promastigotes) [nM] | SI (Promastigotes) selectivity index (macrophages/L. major) (L. major promastigotes) | IC50 [1] [µM] | SI selectivity index (Vero/T. gondii) [1] | SI (Amastigotes) selectivity index (macrophages/L. major) (L. major amastigotes) | IC50 (murine macrophages) [µM] | IC50 (Vero monkey kidney cells) [µM] | Colony formation (long-term antiproliferative effect, clonogenicity) (HepG2 [4]) | Colony formation (long-term antiproliferative effect, clonogenicity) (HuH-7 [5]) | Hsp90 protein expression level (Hsp90 in HepG2 cells) | Hsp90 protein expression level (Hsp90 in HuH-7 cells) | LDH release (non-specific toxicity) (HuH-7 [6]) | LDH release (non-specific toxicity) (HepG2 [7]) | Hsp70 protein expression level (Hsp70 in HuH-7 cells) | Hsp70 protein expression level (Hsp70 in HepG2 cells) | IC50 [8] [nM]
COc1ccccc1C(=O)/C=C/c1c2ccccc2cc2ccccc12 [2MeO-Anth] | 1800 | > 10 | 33.7 | > 10 |  | 26.6 | 9.8 | 2.3 | 1.5 | 48.8 | 22.8 |  |  |  |  |  |  |  |  | 
C=CCNC1=C2C[C@@H](C)C[C@H](OC)[C@H](O)[C@@H](C)/C=C(\C)[C@H](OC(N)=O)[C@@H](OC)/C=C\C=C(/C)C(=O)NC(=CC1=O)C2=O [17-AAG] |  | 1.6 ± 0.5 |  | 0.4 ± 0.4 |  |  |  |  |  |  |  | inhibited colony formation significantly; also recorded: close to no colonies formed | inhibited colony formation significantly; also recorded: close to no colonies formed |  |  |  |  |  |  | 
COc1cc(OC)c(C(=O)/C=C/c2cccc(S(F)(F)(F)(F)F)c2)c(OC)c1 [246TMP-3SF5, 2′,4′,6′-trimethoxy-3-pentafluorosulfanylchalcone] | 9200 | 1.3 ± 0.2 | 20.3 | 2.2 ± 0.3 |  | 3.5 | 0.42 | 2.8 | 1.6 | 32.1 | 1.2 | dose-dependent decrease in colonies formed; also recorded: close to no colonies formed | dose-dependent decrease in colonies formed; also recorded: close to no colonies formed | almost no changes | almost no changes | does not significantly increase LDH release | does not significantly increase LDH release | drastically increased | drastically increased | 
COc1cc(OC)c(C(=O)/C=C/c2c3ccccc3cc3ccccc23)c(OC)c1 [246TMP-Anth, 2′,4′,6′-trimethoxy-9-anthracenylchalcone] | < 1000 | > 10 | 18.8 | > 10 | 730 | 21.7 | 5.8 | 3.4 | 0.84 | 15.8 | 19.6 |  |  |  |  |  |  |  |  | 
O=C1C(O)=C([C@H]2CC[C@H](c3ccc(Cl)cc3)CC2)C(=O)c2ccccc21 [ATO] |  |  |  |  |  |  |  |  |  |  |  |  |  |  |  |  |  |  |  | 70
CNC(=O)c1cc(Oc2ccc(NC(=O)Nc3ccc(Cl)c(C(F)(F)F)c3)cc2)ccn1 [Sorafenib, reference compound] |  | 4.4 ± 1 |  | 5.4 ± 0.6 |  |  |  |  |  |  |  | colony count did not differ much from the untreated controls | colony count did not differ much from the untreated controls |  |  |  |  |  |  | 

Further lines, with some results ahead:

IC50 (L. major promastigotes; Leishmania major) [nM] | IC50 (HepG2 [2]) [µM] | IC50 (L. major amastigotes) [µM] | IC50 (HuH-7 [3]) [µM] | IC50 (L. major promastigotes) [nM] | Structure (SMILES) | SI (Promastigotes) selectivity index (macrophages/L. major) (L. major promastigotes) | IC50 [1] [µM] | SI selectivity index (Vero/T. gondii) [1] | SI (Amastigotes) selectivity index (macrophages/L. major) (L. major amastigotes) | IC50 (murine macrophages) [µM] | IC50 (Vero monkey kidney cells) [µM] | Colony formation (long-term antiproliferative effect, clonogenicity) (HepG2 [4]) | Colony formation (long-term antiproliferative effect, clonogenicity) (HuH-7 [5]) | Hsp90 protein expression level (Hsp90 in HepG2 cells) | Hsp90 protein expression level (Hsp90 in HuH-7 cells) | LDH release (non-specific toxicity) (HuH-7 [6]) | LDH release (non-specific toxicity) (HepG2 [7]) | Hsp70 protein expression level (Hsp70 in HuH-7 cells) | Hsp70 protein expression level (Hsp70 in HepG2 cells) | IC50 [8] [nM]
< 1000 | > 10 | 28.4 | > 10 | 860 | COc1ccc(C(=O)/C=C/c2cccc([N+](=O)[O-])c2)c(OC)c1 [24DMP-3NO] | 29.3 | 2.2 | 2.4 | 0.89 | 25.2 | 5.4 |  |  |  |  |  |  |  |  | 
2200 | > 10 | 28 | > 10 |  | COc1ccc(C(=O)/C=C/c2c3ccccc3cc3ccccc23)c(OC)c1 [24DMP-Anth] | 22.3 | 7.6 | 2.9 | 1.7 | 48.3 | 22.3 |  |  |  |  |  |  |  |  | 
